The source made the active and inactive calls. No cut-off for these calls is given here.

For test [1], the system named is Rattus norvegicus. The experiment in a line: Effect on heart rate in anesthetized Wistar rat assessed as heart beats per min at 1 mg/kg, iv after 5 mins by electrocardiography. Format: functional.
Test [2] relates to Rattus norvegicus. The experiment in a line: Hypotensive activity in normotensive Wistar rat assessed as decrease in systolic blood pressure at 0.25 to 1 mg/kg, iv up to 60 mins. Format: functional. The arrangement: scale not given: the % may be the effect or the level left. The settings on record: dose mg/kg 0.25-1.
Test [3] has as its system Rattus norvegicus. Kind of test: Hypotensive activity in normotensive Wistar rat assessed as decrease in diastolic blood pressure at 0.25 to 1 mg/kg, iv up to 60 mins. Details: scale not given: the % may be the effect or the level left. Format: functional, Artery. The settings on record: dose mg/kg 0.25-1.
Test [4] deals with T1, Adrenergic receptor alpha-2 (Rattus norvegicus, UniProt P22086+P19328+P22909).
T1 sequence (P22086 whole entry): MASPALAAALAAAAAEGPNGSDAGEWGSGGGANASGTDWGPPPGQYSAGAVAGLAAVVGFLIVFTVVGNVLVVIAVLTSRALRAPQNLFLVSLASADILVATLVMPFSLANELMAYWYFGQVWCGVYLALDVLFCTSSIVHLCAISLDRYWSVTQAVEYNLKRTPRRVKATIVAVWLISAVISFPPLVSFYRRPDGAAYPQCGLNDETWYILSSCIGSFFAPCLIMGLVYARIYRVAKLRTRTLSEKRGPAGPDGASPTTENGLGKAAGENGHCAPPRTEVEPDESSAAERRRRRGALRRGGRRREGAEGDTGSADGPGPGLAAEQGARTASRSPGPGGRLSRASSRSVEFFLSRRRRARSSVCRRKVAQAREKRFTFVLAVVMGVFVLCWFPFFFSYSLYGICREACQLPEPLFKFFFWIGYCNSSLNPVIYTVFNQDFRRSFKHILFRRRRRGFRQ
T1 sequence (P19328 whole entry): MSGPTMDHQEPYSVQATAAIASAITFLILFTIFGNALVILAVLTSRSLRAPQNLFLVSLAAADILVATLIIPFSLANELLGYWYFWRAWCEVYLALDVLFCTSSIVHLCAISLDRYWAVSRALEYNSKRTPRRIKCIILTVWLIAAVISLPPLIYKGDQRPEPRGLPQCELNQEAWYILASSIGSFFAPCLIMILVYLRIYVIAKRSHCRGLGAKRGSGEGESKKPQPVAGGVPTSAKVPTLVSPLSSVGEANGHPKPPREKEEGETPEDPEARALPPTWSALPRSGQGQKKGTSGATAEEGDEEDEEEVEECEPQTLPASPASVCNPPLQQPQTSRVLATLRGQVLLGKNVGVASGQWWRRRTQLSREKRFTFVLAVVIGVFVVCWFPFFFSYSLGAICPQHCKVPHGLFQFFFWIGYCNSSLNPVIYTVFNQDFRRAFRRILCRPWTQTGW
T1 sequence (P22909 whole entry): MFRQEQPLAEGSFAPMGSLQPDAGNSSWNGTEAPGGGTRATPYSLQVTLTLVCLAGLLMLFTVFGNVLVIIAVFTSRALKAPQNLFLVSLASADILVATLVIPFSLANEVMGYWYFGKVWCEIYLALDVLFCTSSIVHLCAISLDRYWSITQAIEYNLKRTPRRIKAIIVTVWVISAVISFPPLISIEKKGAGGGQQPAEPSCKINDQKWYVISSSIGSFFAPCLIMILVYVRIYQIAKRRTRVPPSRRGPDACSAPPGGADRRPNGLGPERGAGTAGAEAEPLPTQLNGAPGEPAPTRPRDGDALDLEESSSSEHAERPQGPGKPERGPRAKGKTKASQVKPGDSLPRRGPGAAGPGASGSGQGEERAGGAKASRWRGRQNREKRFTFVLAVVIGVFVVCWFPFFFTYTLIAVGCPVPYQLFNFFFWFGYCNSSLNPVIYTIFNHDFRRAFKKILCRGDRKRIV
Kind of test: Displacement of [3H]Clonidine from alpha2 adrenergic receptor in Wistar rat cerebral cortex membrane by liquid scintillation counting. It is filed as tissue-based. In general terms: In a radioligand displacement assay an active substance lowers the binding of a labelled ligand.

Test [5] relates to Rattus norvegicus. The experiment in a line: Effect on heart rate in anesthetized Wistar rat assessed as decrease in heart rate at 1 mg/kg, iv up to 15mins by electrocardiography. Format: functional. Details: scale not given: the % may be the effect or the level left.
In test [6] the test system is Rattus norvegicus. The experiment in a line: Hypotensive activity in normotensive Wistar rat assessed as decrease in systolic blood pressure at 0.125 mg/kg, iv up to 60 mins. Format: functional, organism-based. Details: dose 0.125 mg/kg. The settings on record: Artery.
Test [7] concerns Rattus norvegicus. Kind of test: Hypotensive activity in normotensive Wistar rat assessed as decrease in diastolic blood pressure at 0.125 mg/kg, iv up to 60 mins. Format: functional, organism-based. Details: dose 0.125 mg/kg. The settings on record: Artery.
Test [8] is described as follows: (§1) Spasmolytic activity in rabbit ileum assessed as decrease in amplitude of contraction at 100 uM measured for 5 mins. Format: functional, Oryctolagus cuniculus. The arrangement: scale not given: the % may be the effect or the level left.
Test [9] is filed under the species Oryctolagus cuniculus. Described as §1. It is filed as functional.
Test [10] in a line: (§2) Spasmolytic activity in rabbit ileum assessed as decrease in amplitude of contraction at 10 uM measured for 5 mins. Format: functional, Oryctolagus cuniculus. Details: scale not given: the % may be the effect or the level left.
Test [11] is filed under the species Oryctolagus cuniculus. The test is described as §2. Format: functional.
The subject of test [12] is Rattus norvegicus. The experiment in a line: Hypotensive activity in normotensive Wistar rat assessed as decrease in systolic blood pressure at 0.125 to 1 mg/kg, iv up to 60 mins. Format: functional, organism-based. The settings on record: Artery.
Test [13] concerns Rattus norvegicus. Kind of test: Hypotensive activity in normotensive Wistar rat assessed as decrease in diastolic blood pressure at 1 to 5 mg/kg, iv up to 60 mins. Format: functional, organism-based. The settings on record: Artery.
For test [14], the system named is Rattus norvegicus. Kind of test: Hypotensive activity in normotensive Wistar rat assessed as decrease in systolic blood pressure at 0.0312 mg/kg, iv up to 60 mins. Format: functional, organism-based. Details: dose 0.0312 mg/kg. The settings on record: Artery.
In test [15] the test system is Rattus norvegicus. The experiment in a line: Hypotensive activity in normotensive Wistar rat assessed as decrease in diastolic blood pressure at 0.0312 mg/kg, iv up to 60 mins. It is filed as functional, organism-based. Details: dose 0.0312 mg/kg. The settings on record: Artery.
Test [16] deals with Rattus norvegicus. The experiment in a line: Hypotensive activity in normotensive Wistar rat assessed as decrease in systolic blood pressure at 0.125 mg/kg, iv up to 30 mins. Details: dose 0.125 mg/kg. Format: functional, organism-based. The settings on record: Artery.
Test [17] deals with Rattus norvegicus. Kind of test: Hypotensive activity in normotensive Wistar rat assessed as decrease in diastolic blood pressure at 0.125 mg/kg, iv up to 10 mins. The settings on record: Artery. Format: functional, organism-based. Details: dose 0.125 mg/kg.
Test [18] deals with Rattus norvegicus. The experiment in a line: Hypotensive activity in normotensive Wistar rat assessed as decrease in systolic blood pressure at 0.0625 mg/kg, iv up to 60 mins. It is filed as functional, organism-based. The arrangement: dose 0.0625 mg/kg. The settings on record: Artery.
In test [19] the test system is Rattus norvegicus. Kind of test: Hypotensive activity in normotensive Wistar rat assessed as decrease in diastolic blood pressure at 0.0625 mg/kg, iv up to 60 mins. It is filed as functional, organism-based. Details: dose 0.0625 mg/kg. The settings on record: Artery.

Consider `COc1ccccc1OCCNCC(O)COc1ccc(OC)c2[nH]ccc12` (racemic), for which the Activity is reported as 292.2 bpm in the test with Rattus norvegicus [1]; 12% with Rattus norvegicus [2]; 13% in the test with Rattus norvegicus [3]; 10% in the test on Rattus norvegicus [5]; 10% in [8]; 10% in [10]. This compound registered a Ki in [4] of 180.8 nM. Besides, the result in the test on Rattus norvegicus [6], in the test on Rattus norvegicus [7], in the test listed under Oryctolagus cuniculus [9] and in the test listed under Oryctolagus cuniculus [11] was inactive.

In the case of `COc1ccccc1OCCNC[C@H](O)COc1c(OC)ccc2[nH]ccc12`, the Activity in the test on Rattus norvegicus [1] is 381 bpm. In test [4], the Ki is 60.9 nM. The outcome with Rattus norvegicus [12], in the test on Rattus norvegicus [13], in the test listed under Oryctolagus cuniculus [9] and in the test listed under Oryctolagus cuniculus [11] was Active. Further, the outcome with Rattus norvegicus [14] and with Rattus norvegicus [15] was inactive.

Take `COc1ccccc1OCCNC[C@@H](O)COc1ccc(OC)c2[nH]ccc12`: the Activity stood at 259 bpm with Rattus norvegicus [1], 12% in the test on Rattus norvegicus [2], 13% in the test on Rattus norvegicus [3] and 10% with Rattus norvegicus [5]. The compound further yielded an inhibition constant Ki in test [4] of 108.8 nM. Moreover, the outcome in the test with Rattus norvegicus [6] and in the test with Rattus norvegicus [7] was inactive.

As for `COc1ccccc1OCCNC[C@H](O)COc1ccc(OC)c2[nH]ccc12`, the Activity with Rattus norvegicus [1] was 292.3 bpm; in the test with Rattus norvegicus [2] it was 12%; with Rattus norvegicus [3], 13%; in the test on Rattus norvegicus [5], 10%; in test [8], 10%; in test [10] it was 10%. Further, in test [4], the Ki turned out to be 277.2 nM. Also, the result with Rattus norvegicus [6] and in the test with Rattus norvegicus [7] was inactive.

Take `COc1ccccc1OCCNCC(O)COc1c(OC)ccc2[nH]ccc12` (racemic): the Activity came out at 372.9 bpm in the test on Rattus norvegicus [1], 7% in the test with Rattus norvegicus [2] and 8% with Rattus norvegicus [3]. Besides, the inhibition constant Ki in test [4] is listed as 56.9 nM. Also, the outcome with Rattus norvegicus [16], in the test on Rattus norvegicus [17], in the test with Rattus norvegicus [12], in the test on Rattus norvegicus [13] and in the test filed under Oryctolagus cuniculus [9] was Active. In the test filed under Oryctolagus cuniculus [11], the result was inactive.

As to `COc1ccccc1OCCNC[C@@H](O)COc1c(OC)ccc2[nH]ccc12`, the Activity in the test with Rattus norvegicus [1] is given as 403.2 bpm. Also, the Ki in [4] is 43 nM. The result in the test with Rattus norvegicus [12], in the test on Rattus norvegicus [13], in the test listed under Oryctolagus cuniculus [9] and in the test filed under Oryctolagus cuniculus [11] was Active. Also, the outcome in the test on Rattus norvegicus [18] and in the test with Rattus norvegicus [19] was inactive.

One may read the Ki as a dissociation constant, usually derived from enzyme kinetics or from competition with a known ligand.

The values above are taken from ChEMBL document CHEMBL1154779, “Synthesis and adrenolytic activity of 1-(1H-indol-4-yloxy)-3-(2-(2-methoxy phenoxy)ethylamino)propan-2-ol analogs and its enantiomers. Part 2” (Eur J Med Chem, 2009).
